What was measured:
[1] = tested on: bladder smooth muscle strips; assay: Antimuscarinic activity on bladder smooth muscle strips (carbachol-induced contractions); type: cell-based, guinea pigs; conditions: Cavia porcellus, read-out: KB, inhibition of carbachol-induced contractions
[2] = biological target: T1, human recombinant muscarinic receptor M-3 (Homo sapiens, UniProt P20309); assay: biochemical; type: binding
T1 construct: expressed in transfected cells; host or cells: Sf9 insect cells (membranes)
T1 sequence (P20309 whole entry): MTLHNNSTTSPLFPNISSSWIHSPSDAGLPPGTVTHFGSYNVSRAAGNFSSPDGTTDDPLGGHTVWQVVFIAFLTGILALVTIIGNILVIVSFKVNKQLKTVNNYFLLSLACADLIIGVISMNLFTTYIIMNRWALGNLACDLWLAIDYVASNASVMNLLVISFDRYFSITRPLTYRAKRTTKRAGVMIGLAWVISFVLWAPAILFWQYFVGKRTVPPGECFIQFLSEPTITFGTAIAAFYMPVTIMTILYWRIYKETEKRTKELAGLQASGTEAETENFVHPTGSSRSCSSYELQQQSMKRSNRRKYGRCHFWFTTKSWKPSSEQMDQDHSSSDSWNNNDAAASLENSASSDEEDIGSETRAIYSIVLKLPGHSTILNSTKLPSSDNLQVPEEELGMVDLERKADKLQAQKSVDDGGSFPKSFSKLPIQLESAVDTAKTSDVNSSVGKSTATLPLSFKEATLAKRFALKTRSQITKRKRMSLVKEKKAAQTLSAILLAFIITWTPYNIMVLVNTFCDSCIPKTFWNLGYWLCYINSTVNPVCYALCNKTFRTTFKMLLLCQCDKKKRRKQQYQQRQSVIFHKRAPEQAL

Cc1ccc(O)c([C@H](CCN(C(C)C)C(C)C)c2ccccc2)c1 [Tolterodine]
Kb [1]: 1.5 to 5.5 nM

O=C(OC1CC2CCC(C1)[N+]21CCCC1)C(O)(c1ccccc1)c1ccccc1 (stereo not drawn) [Trospium, 3α-hydroxy-spiro[1αH,5αH-nortropane-8,1′-pyrrolidinium]chloride benzilate]
Kb [1]: 1.5 to 5.5 nM | Ki [2]: 0.501 nM
